The target of one test is T1, PPT1 (Mus musculus, UniProt O88531).
T1 sequence (O88531 28-306): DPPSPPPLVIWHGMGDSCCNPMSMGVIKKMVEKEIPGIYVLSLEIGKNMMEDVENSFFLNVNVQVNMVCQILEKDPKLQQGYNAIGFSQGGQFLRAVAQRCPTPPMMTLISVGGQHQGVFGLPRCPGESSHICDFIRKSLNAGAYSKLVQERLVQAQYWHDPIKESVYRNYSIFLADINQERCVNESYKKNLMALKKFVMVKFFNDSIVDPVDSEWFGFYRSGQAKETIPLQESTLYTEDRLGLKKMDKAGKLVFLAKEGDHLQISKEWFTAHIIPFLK
The test can be described thus: microscale thermophoresis. It counts as binding.

For the next test, the target named is T2, PPT1 (endogenous, BMDMs) (Mus musculus, UniProt O88531).
T2 sequence (O88531 28-306): T1 sequence (O88531 28-306)
The test can be described thus: cellular thermal shift assay, immunoblot. The format is cell-based. Conditions: intact BMDMs, 37-62 °C, 3 min.

`O=C(O)C(=O)Cc1ccccc1` [phenylpyruvate] yielded a Kd on PPT1 of 863 µM. Also, the thermal shift result at PPT1 (endogenous, BMDMs) is “phenylpyruvate treatment significantly changed PPT1 protein stability after heating”.
